Like-named read-outs stand apart in the source and are kept apart here.
Tests used:
[1] = molecular target: T1, GAL4-mPPARγ (Mus musculus, UniProt P37238); experiment: GAL4-mPPARγ activation, transient transfection luciferase reporter in COS7 cells; format: cell-based; settings: for Activation of GAL4-PPARγ (text): COS7, 100 μM through 0.137 μM; for EC50: COS7, ligands 24 hr, nonlinear regression variable slope, spirodiclofen constrained at top dose, read-out: PPARγ agonists: EC50, Fig 1A / Fig 4A; for PPARγ agonists: EC10, Fig 1A / Fig 4A: COS7, computed from EC50 in GraphPad Quick Calc
T1 construct: expressed in transfected cells; host or cells: COS7
T1 sequence (P37238 with tags, fused parts or gaps limits assumed): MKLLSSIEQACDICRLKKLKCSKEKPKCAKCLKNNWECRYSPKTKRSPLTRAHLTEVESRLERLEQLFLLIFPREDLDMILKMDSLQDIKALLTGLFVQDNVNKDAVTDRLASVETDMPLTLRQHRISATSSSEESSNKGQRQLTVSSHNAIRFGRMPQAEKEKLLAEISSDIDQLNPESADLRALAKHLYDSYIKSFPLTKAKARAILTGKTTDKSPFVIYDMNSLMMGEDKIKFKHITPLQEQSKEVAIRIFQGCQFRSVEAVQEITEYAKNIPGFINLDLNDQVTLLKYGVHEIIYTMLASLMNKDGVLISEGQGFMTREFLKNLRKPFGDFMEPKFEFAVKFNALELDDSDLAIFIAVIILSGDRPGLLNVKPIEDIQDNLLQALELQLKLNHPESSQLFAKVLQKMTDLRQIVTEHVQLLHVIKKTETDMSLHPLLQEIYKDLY

[2] = system: COS7 cells; experiment: Cytotoxicity in transfected COS7 cells measured as decreased β-galactosidase activity
Description: pCMX-Gal4, pCMX-Gal4-mPPARγ, and pCMX-Gal4-hRXRα were previously described ([Grün et al. 2006]). Transient transfections were performed in COS7 cells as described ([Chamorro-García et al. 2012]). Briefly, COS7 cells were seeded at 15,000 cells per well in 96-well tissue culture plates in 10% calf bovine serum. The following day, cells were transfected in Opti-MEM at ~ 90% confluency. One microgram of CMX-GAL4 effector plasmid was co-transfected with 5 μg tk-(MH100)4-luciferase reporter and 5 μg of CMX-β-galactosidase transfection control plasmids in Opti-MEM® using Lipofectamine® 2000 reagent (Invitrogen™ Life Technologies, Carlsbad, CA, USA), following the manufacturer’s recommended protocol. All chemicals were solvated in dimethyl sulfoxide (DMSO). After overnight incubation, the medium was replaced with Dulbecco’s Modified Eagle Medium (DMEM; HyClone, Logan, UT, USA), 10% resin charcoal stripped fetal bovine serum (FBS) plus ligands at concentrations indicated in the figure legends for an additional 24 hr. DMSO concentration was maintained at 0.05% across all chemical treatments. Cells were lysed and assayed for luciferase and β-galactosidase activity as previously described ([Forman et al. 1995]). All transfections were performed in triplicate and reproduced in multiple experiments. Data are reported as fold induction or reduction over vehicle ([…]) controls ± SEM (standard error of the mean) using standard propagation of error ([Bevington and Robinson 2003]). […] The EC50, EC10, IC50, and IC10 values from NCGC and ToxCast™ are reported from gain AC50 and AC10 values in the ToxCast™ 2014 release ([Filer et al. 2014]).
Figure 1 ToxCast™ Chemical Activity on PPARγ. The ability of a graded dose series of ToxCast™ chemicals to (A) activate or (B) antagonize GAL4-mPPARγ was tested in transiently transfected COS7 cells. (A, B) Data points are averages of triplicate transfections (three biological replicates). […] Data are depicted as (A) fold induction or (B) reduction over vehicle (0.05% DMSO) controls ± SEM. (A) ToxCast™ chemicals were tested in 3-fold serial dilutions from 100 μM through 0.137 μM, with the final data point being 0.05% DMSO. Rosiglitazone serves as a positive control activator. (B) ToxCast™ chemicals were tested in 3-fold serial dilutions from 100 μM, in competition with 50 nM rosiglitazone (Rosi). […] (C) EC50, EC10, IC50, and IC10 values calculated from A and B are reported and compared to commercial assays (see Figure S1). Note: ATG, Attagene GAL-PPARγ activation assay; NCGC, GeneBLAzer® agonist (EC values) or antagonist (IC values) assays. Triphenyltin was previously published ([Kanayama et al. 2005]).

[3] = system: PPARγ; settings: cited from earlier work; for AC50: PPARγ, NA = not active; for PPARγ agonists: EC10, NCGC: AC10, ToxCast 2014 release; for EC50: gain AC50, ToxCast 2014 release, read-out: PPARγ agonists: EC50, NCGC
[4] = system: mouse bone marrow-derived mesenchymal stem cells (mBMSCs); format: cell-based; settings: for Induction of adipogenesis in mBMSCs, doses: lipid accumulation, Nile red/Hoechst; for Induction of adipogenesis in mBMSCs, doses / Adipogenic gene expression (Fabp4, Fsp27, Lpl), QPCR: Figure 2B; for Adipogenic gene expression (Fabp4, Fsp27, Lpl), QPCR: mBMSCs
Description: A total of 8 × 10^4 cells/well mouse bone marrow-derived mesenchymal stem cells (mBMSCs) (OriCell™) were seeded in 12-well plates in basic medium: high-glucose DMEM (Hyclone) containing 10% calf bovine serum (Premium Select, Atlanta Biologicals), 100 IU/mL penicillin, 100 μg/mL streptomycin, and 1 mM sodium pyruvate. mBMSCs were induced to differentiate in differentiation media (low glucose αMEM containing 15% fetal bovine serum (Premium Select, Atlanta Biologicals), 100 IU/mL penicillin, 100 μg/mL streptomycin and 2 mM L-glutamine) with adipogenic cocktail (500 μM isometylbutylxanthine, 1 μM dexamethasone, 5 μg/mL insulin) and either 500 nM ROSI, 50 nM TBT or ToxCast™ chemicals (as noted for 3T3-L1 cells) for 14 days, replacing the media every 3 days.
Cells were either fixed in 3.7% formaldehyde in phosphate-buffered saline (PBS) for 30 min at room temperature (RT) for lipid quantitation, or homogenized in TriPure (Roche, Mannheim, Germany) for gene expression analysis. For lipid quantitation, fixed cells were washed twice with PBS and maintained in PBS overnight at 4°C to release residual phenol red. Background of cells were measured prior to staining. Cells were stained with 1 μg/mL Nile red (CAS No. 7385-67-3) (to detect lipid accumulation) and 1 μg/mL Hoechst 33342 (ThermoFisher Scientific) (to detect nuclei as a surrogate for cell number) in PBS for 15 min in the dark at RT and washed twice with PBS. […] Background values of Hoechst and Nile red were subtracted from the RFUs after staining and the ratio RFUNile Red:RFUHoechst was calculated. Data are represented as mean ± SEM. Total RNA was isolated using TriPure (Roche) as recommended by the manufacturer. Reverse transcription and quantitative real-time RT-PCR (QPCR) were performed using Transcriptor RT and SYBR® Green Master Mix (Roche). cDNA was quantitated in a LightCycler® 480 System (Roche Diagnostics, Basel, Switzerland) using primer sets listed in Table S4. Each primer set amplified a single band as determined by gel electrophoresis and melting curve analysis. QPCR data were analyzed using the 2^ΔΔCt method ([Livak and Schmittgen 2001]) relative to ribosomal protein 36b4, normalizing to 0.1% DMSO vehicle. Error bars represent the SEM from four to six biological replicates calculated using standard propagation of error ([Bevington and Robinson 2003]).

[5] = ref Filer et al. 2014, read-out: NCGC Agonist AC50, 2014 Release
[6] = Cos-7 transient transfection, PPARγ activation or antagonism assays (Table 1, Table S6)
[7] = ref Knudsen et al. 2011, read-out: NCGC Agonist AC50, 2011 Release

Row | SMILES | Activation of GAL4-PPARγ (text) [1] | Concentration at which cytotoxicity (decreased β-galactosidase activity) was observed ([2]; transfected COS7 cells, 24 hr) [µM] | AC50 [3, 5] [µM] | Activation COS7 (result in words), ToxCast PPARγ list [1] | Activation of GAL4-PPARγ (text) ([1]; listed as quinoxyfen) | EC50 [1] [µM] | PPARγ agonists: EC10, Fig 1A / Fig 4A [1] [µM] | AC50 ([1]; Cos-7 transient transfection) [µM] | Activation COS7 (result in words), ToxCast PPARγ list [1, 6] | Activation COS7 (result in words), ToxPi chemicals ([1]; Cos-7 transient transfection, PPARγ or RXRα activation assays (Table 2)) | Adipogenic differentiation of mBMSCs (result in words) ([4]; 14 days, Figure 7) | PPARγ agonists: EC10, NCGC ([3]; ref Filer et al. 2014) [µM] | AC50 [3, 7] [µM] | EC50 ([3]; ref Filer et al. 2014) [µM] | AC50 ([1]; read-out: Activation AC50 (PPARγ activators), Cos-7 transient transfection) [µM] | Induction of adipogenesis in mBMSCs, doses ([4]; 14 days) | Adipogenic gene expression (Fabp4, Fsp27, Lpl), QPCR [4] | Lipid accumulation: TOXIC mark in place of bar [4] | Concentration toxic to mBMSCs ([4]; mouse, 14 days) [µM] | Concentration at which cytotoxicity (decreased β-galactosidase activity) was observed ([2]; African green monkey, 24 h) [µM]
1 | O=[N+]([O-])c1cc(C(F)(F)F)c(Cl)c([N+](=O)[O-])c1Nc1ncc(C(F)(F)F)cc1Cl [Fluazinam] | did not activate PPARγ | 100 | 0.07 | – | – | – | – | – | – | – | – | – | – | – | – | – | – | – | – | –
2 | Fc1ccc(Oc2ccnc3cc(Cl)cc(Cl)c23)cc1 [Quinoxyfen] | weakly active at 100 μM and 33 μM doses | – | 40.6 | Inactive | activated PPARγ | 33.4 | 14.24 | 33.4 | PPARγ Activator | PPARγ activator | could differentiate these uncommitted stem cells into adipocytes | 2.44 | 6.7 | 40.6 | – | – | – | – | – | –
3 | CCC(C)(C)C(=O)OC1=C(c2ccc(Cl)cc2Cl)C(=O)OC12CCCCC2 [Spirodiclofen] | activated GAL-PPARγ | 100 | 1.6 | – | – | 12.8 | 7.27 | – | PPARγ activator | – | – | 0.17 | 2.8 | 1.64 | 12.8 | induced adipogenesis at 10 and 20 μM | increases | – | – | –
4 | CCC(C)(NC(=O)c1cc(Cl)c(C)c(Cl)c1)C(=O)CCl (centres unmarked) [Zoxamide] | activated GAL-PPARγ | – | – | – | – | 1.31 | 0.31 | 1.31 | PPARγ activator | – | – | – | – | – | – | induced differentiation at 2 and 10 μM | increases | TOXIC | ≥ 20 | ≥ 10
